Results reported in US6664231B1, “Anti-fungal peptides” (priority 1993, dated 2003).
Square brackets hold non-standard residues; d marks the D form. Peptide text beside a SMILES is read from it. Phe(4-NH2) = Nc1ccc(C[C@H](N)C(=O)O)cc1; 1Nal = N[C@@H](Cc1cccc2ccccc12)C(=O)O

Tested on: C. albicans (CA-1, Strain SLU-1)
Test: Radial diffusion assay
Assay type: cell-based, Candida albicans
Details: pmoles of peptide added to well to achieve a 30 mm^2 zone, PROBIT analysis; crude or purified (P′) peptide
Method: In the radial diffusion assay procedures, the CA-1 cultures and peptide solutions were prepared as in the broth assay procedure described above. Ten mL of molten underlayer agarose comprising 3% Sabouraud Dextrose broth, 1% agarose (Pharmacia, Piscataway, N.J.), 0.02% Tween 20, and 10 mM sodium phosphate at pH 7.4, was added to polystyrene tubes and maintained in a 56° C. water bath until the addition of yeast. Tubes were cooled to approximately 45° C., yeast were added to give a final concentration of 1×10^6 CFU/mL, and the tubes were mixed again by inverting. The contents were poured into level square petri dishes and distributed evenly. […] A series of wells were punched into the hardened agarose using a sterile 3 mm punch attached to a vacuum apparatus.
Peptides to be assayed were 2-fold serially diluted in Dulbecco's PBS (D-PBS) starting from a concentration of approximately 1 mg/mL. Five μL of each dilution were added to each well and the plates were incubated at 37° C. for 3 hours. An overlayer of 10 mL of molten agarose comprising 6% Sabouraud Dextrose broth, 1% agarose, and 10 mM sodium phosphate, pH 7.4, (at approximately 45° C.) was then added and plates were incubated overnight at 37° C. Following this overnight incubation, a dilute Coomassie solution was poured into the plates and allowed to stain for 24 hours.
Clear zones of growth inhibition around each well were measured with calipers. The actual area of growth inhibition (mm^2) was calculated by subtracting the area of the well. Table 1 below sets out the results of the radial diffusion assays for tested peptides in terms of the number of picomoles (pmol) of peptide required to establish a 30 mm^2 area of growth inhibition calculated by PROBIT analysis (e.g., calculated from regression of the linear portion of log-concentration dose-response curve, log pmol/well vs. net area of inhibition).

Structure (SMILES) | C. albicans pmol/30 mm^2 zone
CC[C@H](C)[C@H](NC(=O)[C@H](CC(C)C)NC(=O)[C@H](Cc1c[nH]c2ccccc12)NC(=O)CNC(=O)[C@@H](NC(=O)[C@H](CCCCN)NC(=O)[C@H](CO)NC(=O)[C@@H](N)CCCCN)C(C)C)C(=O)N[C@@H](CCC(N)=O)C(=O)N[C@@H](CC(C)C)C(=O)N[C@@H](Cc1ccccc1)C(=O)N[C@@H](Cc1cccc2ccccc12)C(=O)N[C@@H](CCCCN)C(=O)N[C@@H](Cc1cccc2ccccc12)C(N)=O [XMP.146] (H-KSKVGWLIQLF[1Nal]K[1Nal]-NH2) | b (No detectable activity up to 5 μg/well)
CC[C@H](C)[C@H](NC(=O)[C@H](CC(C)C)NC(=O)[C@H](Cc1cccc2ccccc12)NC(=O)CNC(=O)[C@@H](NC(=O)[C@H](CCCCN)NC(=O)[C@H](CO)NC(=O)[C@@H](N)CCCCN)C(C)C)C(=O)N[C@@H](CCC(N)=O)C(=O)N[C@@H](CC(C)C)C(=O)N[C@@H](Cc1ccccc1)C(=O)N[C@@H](Cc1cccc2ccccc12)C(=O)N[C@@H](CCCCN)C(=O)N[C@@H](CCCCN)C(N)=O [XMP.148] (H-KSKVG[1Nal]LIQLF[1Nal]KK-NH2) | >2805 pmol/30 mm^2 zone
CC[C@H](C)[C@H](NC(=O)[C@H](CC(C)C)NC(=O)[C@H](Cc1cccc2ccccc12)NC(=O)CNC(=O)[C@@H](NC(=O)[C@H](CCCCN)NC(=O)[C@H](CO)NC(=O)[C@@H](N)CCCCN)C(C)C)C(=O)N[C@@H](CCC(N)=O)C(=O)N[C@@H](CC(C)C)C(=O)N[C@@H](Cc1ccccc1)C(=O)N[C@@H](Cc1c[nH]cn1)C(=O)N[C@@H](CCCCN)C(=O)N[C@@H](Cc1cccc2ccccc12)C(N)=O [XMP.222] (H-KSKVG[1Nal]LIQLFHK[1Nal]-NH2) | >2,610 pmol/30 mm^2 zone
CC[C@H](C)[C@H](NC(=O)[C@H](CC(C)C)NC(=O)[C@H](Cc1cccc2ccccc12)NC(=O)CNC(=O)[C@@H](NC(=O)[C@H](CCCCN)NC(=O)[C@H](CO)NC(=O)[C@@H](N)CCCCN)C(C)C)C(=O)N[C@@H](CCC(N)=O)C(=O)N[C@@H](Cc1cccc2ccccc12)C(=O)N[C@@H](Cc1ccccc1)C(=O)N[C@@H](Cc1c[nH]cn1)C(=O)N[C@@H](CCCCN)C(=O)N[C@@H](CCCCN)C(N)=O [XMP.223] (H-KSKVG[1Nal]LIQ[1Nal]FHKK-NH2) | b (No detectable activity up to 5 μg/well)
CC[C@H](C)[C@H](NC(=O)[C@H](CC(C)C)NC(=O)[C@H](Cc1cccc2ccccc12)NC(=O)CNC(=O)[C@@H](NC(=O)[C@H](CCCCN)NC(=O)[C@H](CO)NC(=O)[C@@H](N)CCCCN)C(C)C)C(=O)N[C@@H](Cc1ccc(N)cc1)C(=O)N[C@@H](CC(C)C)C(=O)N[C@@H](Cc1ccccc1)C(=O)N[C@@H](Cc1c[nH]cn1)C(=O)N[C@@H](CCCCN)C(=O)N[C@@H](CCCCN)C(N)=O [XMP.224] (H-KSKVG[1Nal]LI[Phe(4-NH2)]LFHKK-NH2) | >2,443 pmol/30 mm^2 zone
CC[C@H](C)[C@H](NC(=O)[C@H](CC(C)C)NC(=O)[C@H](Cc1cccc2ccccc12)NC(=O)[C@H](Cc1ccc(N)cc1)NC(=O)[C@@H](NC(=O)[C@H](CCCCN)NC(=O)[C@H](CO)NC(=O)[C@@H](N)CCCCN)C(C)C)C(=O)N[C@@H](CCC(N)=O)C(=O)N[C@@H](CC(C)C)C(=O)N[C@@H](Cc1ccccc1)C(=O)N[C@@H](Cc1c[nH]cn1)C(=O)N[C@@H](CCCCN)C(=O)N[C@@H](CCCCN)C(N)=O [XMP.225] (H-KSKV[Phe(4-NH2)][1Nal]LIQLFHKK-NH2) | >2,506 pmol/30 mm^2 zone
CC[C@H](C)[C@H](NC(=O)[C@H](CC(C)C)NC(=O)[C@H](Cc1cccc2ccccc12)NC(=O)CNC(=O)[C@@H](NC(=O)[C@H](CCCCN)NC(=O)[C@H](CO)NC(=O)[C@@H](N)CCCCN)C(C)C)C(=O)N[C@@H](CCC(N)=O)C(=O)N[C@@H](CC(C)C)C(=O)N[C@@H](Cc1c[nH]c2ccccc12)C(=O)N[C@@H](Cc1c[nH]cn1)C(=O)N[C@@H](CCCCN)C(=O)N[C@@H](CCCCN)C(N)=O [XMP.226] (H-KSKVG[1Nal]LIQLWHKK-NH2) | >2,597 pmol/30 mm^2 zone
CC[C@H](C)[C@H](NC(=O)[C@H](CC(C)C)NC(=O)[C@H](Cc1c[nH]c2ccccc12)NC(=O)CNC(=O)[C@@H](NC(=O)[C@H](CCCCN)NC(=O)[C@H](CO)NC(=O)[C@@H](N)CCCCN)C(C)C)C(=O)N[C@@H](CCC(N)=O)C(=O)N[C@@H](Cc1cccc2ccccc12)C(=O)N[C@@H](Cc1ccccc1)C(=O)N[C@@H](Cc1c[nH]cn1)C(=O)N[C@@H](CCCCN)C(=O)N[C@@H](Cc1cccc2ccccc12)C(N)=O [XMP.227] (H-KSKVGWLIQ[1Nal]FHK[1Nal]-NH2) | >2,365 pmol/30 mm^2 zone
CC[C@H](C)[C@H](NC(=O)[C@H](CC(C)C)NC(=O)[C@H](Cc1c[nH]c2ccccc12)NC(=O)CNC(=O)[C@@H](NC(=O)[C@H](CCCCN)NC(=O)[C@H](CO)NC(=O)[C@@H](N)CCCCN)C(C)C)C(=O)N[C@@H](Cc1ccc(N)cc1)C(=O)N[C@@H](CC(C)C)C(=O)N[C@@H](Cc1ccccc1)C(=O)N[C@@H](Cc1c[nH]cn1)C(=O)N[C@@H](CCCCN)C(=O)N[C@@H](Cc1cccc2ccccc12)C(N)=O [XMP.228] (H-KSKVGWLI[Phe(4-NH2)]LFHK[1Nal]-NH2) | b (No detectable activity up to 5 μg/well)
CC[C@H](C)[C@H](NC(=O)[C@H](CC(C)C)NC(=O)[C@H](Cc1c[nH]c2ccccc12)NC(=O)[C@H](Cc1ccc(N)cc1)NC(=O)[C@@H](NC(=O)[C@H](CCCCN)NC(=O)[C@H](CO)NC(=O)[C@@H](N)CCCCN)C(C)C)C(=O)N[C@@H](CCC(N)=O)C(=O)N[C@@H](CC(C)C)C(=O)N[C@@H](Cc1ccccc1)C(=O)N[C@@H](Cc1c[nH]cn1)C(=O)N[C@@H](CCCCN)C(=O)N[C@@H](Cc1cccc2ccccc12)C(N)=O [XMP.229] | b (No detectable activity up to 5 μg/well)
CC[C@H](C)[C@H](NC(=O)[C@H](CC(C)C)NC(=O)[C@H](Cc1c[nH]c2ccccc12)NC(=O)CNC(=O)[C@@H](NC(=O)[C@H](CCCCN)NC(=O)[C@H](CO)NC(=O)[C@@H](N)CCCCN)C(C)C)C(=O)N[C@@H](CCC(N)=O)C(=O)N[C@@H](CC(C)C)C(=O)N[C@@H](Cc1c[nH]c2ccccc12)C(=O)N[C@@H](Cc1c[nH]cn1)C(=O)N[C@@H](CCCCN)C(=O)N[C@@H](Cc1cccc2ccccc12)C(N)=O [XMP.230] (H-KSKVGWLIQLWHK[1Nal]-NH2) | >2,386 pmol/30 mm^2 zone
CC[C@H](C)[C@H](NC(=O)[C@H](CC(C)C)NC(=O)[C@H](Cc1c[nH]c2ccccc12)NC(=O)CNC(=O)[C@@H](NC(=O)[C@H](CCCCN)NC(=O)[C@H](CO)NC(=O)[C@@H](N)CCCCN)C(C)C)C(=O)N[C@@H](CCC(N)=O)C(=O)N[C@@H](Cc1cccc2ccccc12)C(=O)N[C@@H](Cc1ccccc1)C(=O)N[C@@H](Cc1cccc2ccccc12)C(=O)N[C@@H](CCCCN)C(=O)N[C@@H](CCCCN)C(N)=O [XMP.231] (H-KSKVGWLIQ[1Nal]F[1Nal]KK-NH2) | b (No detectable activity up to 5 μg/well)
CC[C@H](C)[C@H](NC(=O)[C@H](CC(C)C)NC(=O)[C@H](Cc1c[nH]c2ccccc12)NC(=O)CNC(=O)[C@@H](NC(=O)[C@H](CCCCN)NC(=O)[C@H](CO)NC(=O)[C@@H](N)CCCCN)C(C)C)C(=O)N[C@@H](Cc1ccc(N)cc1)C(=O)N[C@@H](CC(C)C)C(=O)N[C@@H](Cc1ccccc1)C(=O)N[C@@H](Cc1cccc2ccccc12)C(=O)N[C@@H](CCCCN)C(=O)N[C@@H](CCCCN)C(N)=O [XMP.232] (H-KSKVGWLI[Phe(4-NH2)]LF[1Nal]KK-NH2) | b (No detectable activity up to 5 μg/well)
CC[C@H](C)[C@H](NC(=O)[C@H](CC(C)C)NC(=O)[C@H](Cc1c[nH]c2ccccc12)NC(=O)[C@H](Cc1ccc(N)cc1)NC(=O)[C@@H](NC(=O)[C@H](CCCCN)NC(=O)[C@H](CO)NC(=O)[C@@H](N)CCCCN)C(C)C)C(=O)N[C@@H](CCC(N)=O)C(=O)N[C@@H](CC(C)C)C(=O)N[C@@H](Cc1ccccc1)C(=O)N[C@@H](Cc1cccc2ccccc12)C(=O)N[C@@H](CCCCN)C(=O)N[C@@H](CCCCN)C(N)=O [XMP.233] (H-KSKV[Phe(4-NH2)]WLIQLF[1Nal]KK-NH2) | b (No detectable activity up to 5 μg/well)
CC[C@H](C)[C@H](NC(=O)[C@H](CC(C)C)NC(=O)[C@H](Cc1c[nH]c2ccccc12)NC(=O)CNC(=O)[C@@H](NC(=O)[C@H](CCCCN)NC(=O)[C@H](CO)NC(=O)[C@@H](N)CCCCN)C(C)C)C(=O)N[C@@H](CCC(N)=O)C(=O)N[C@@H](CC(C)C)C(=O)N[C@@H](Cc1c[nH]c2ccccc12)C(=O)N[C@@H](Cc1cccc2ccccc12)C(=O)N[C@@H](CCCCN)C(=O)N[C@@H](CCCCN)C(N)=O [XMP.234] (H-KSKVGWLIQLW[1Nal]KK-NH2) | b (No detectable activity up to 5 μg/well)

Same assay, conditions: pmoles of peptide added to well to achieve a 30 mm^2 zone, PROBIT analysis; crude or purified (P′) peptide; listed as XMP.225P′

Structure (SMILES) | C. albicans pmol/30 mm^2 zone
CC[C@H](C)[C@H](NC(=O)[C@H](CC(C)C)NC(=O)[C@H](Cc1cccc2ccccc12)NC(=O)[C@H](Cc1ccc(N)cc1)NC(=O)[C@@H](NC(=O)[C@H](CCCCN)NC(=O)[C@H](CO)NC(=O)[C@@H](N)CCCCN)C(C)C)C(=O)N[C@@H](CCC(N)=O)C(=O)N[C@@H](CC(C)C)C(=O)N[C@@H](Cc1ccccc1)C(=O)N[C@@H](Cc1c[nH]cn1)C(=O)N[C@@H](CCCCN)C(=O)N[C@@H](CCCCN)C(N)=O [XMP.225] (H-KSKV[Phe(4-NH2)][1Nal]LIQLFHKK-NH2) | >2,736 pmol/30 mm^2 zone

Same assay, conditions: pmoles of peptide added to well to achieve a 30 mm^2 zone, PROBIT analysis; crude or purified (P′) peptide; listed as XMP.226P′

Structure (SMILES) | C. albicans pmol/30 mm^2 zone
CC[C@H](C)[C@H](NC(=O)[C@H](CC(C)C)NC(=O)[C@H](Cc1cccc2ccccc12)NC(=O)CNC(=O)[C@@H](NC(=O)[C@H](CCCCN)NC(=O)[C@H](CO)NC(=O)[C@@H](N)CCCCN)C(C)C)C(=O)N[C@@H](CCC(N)=O)C(=O)N[C@@H](CC(C)C)C(=O)N[C@@H](Cc1c[nH]c2ccccc12)C(=O)N[C@@H](Cc1c[nH]cn1)C(=O)N[C@@H](CCCCN)C(=O)N[C@@H](CCCCN)C(N)=O [XMP.226] (H-KSKVG[1Nal]LIQLWHKK-NH2) | >2,895 pmol/30 mm^2 zone
